This is an account of results in publication PMC7902338 (Pharmaceutical Research, 2021).

One data set concerns human OCT1. The conditions noted are these: cited from earlier work.
For data set [1] the following is noted: single oral or intravenous dose; cited from earlier work.
The test system of data set [2] is human P-glycoprotein (P-gp/ABCB1). The conditions noted are these: cited from earlier work.
Data set [3] deals with CYP2D6. The note with it: cimetidine ref 39; metoclopramide ref 10, 11; cited from earlier work.
Data set [4] has as its system CYP2D6. Details: method as in PMID 21740075. The note with it: orally administered, humans, estimated; cited from earlier work.
For data set [5] the following is noted: cited from earlier work.
For data set [6], the system named is cation transporters (OCTs, MATEs). Briefly: [^11C]Metoclopramide PET in C57BL/6 wild-type mice without and with unlabeled metoclopramide, cimetidine or sulpiride. The protocol:
(§1) PET imaging was performed under isoflurane/air anesthesia and animals were warmed throughout the experiment while constantly monitoring body temperature and respiratory rate. A microPET Focus220 scanner (Siemens Medical Solutions, Knoxville, TN, USA) was used for PET imaging. […] List mode data were acquired with a timing window of 6 ns and an energy window of 250–750 keV. At the end of the PET scans, blood was collected from the retro-bulbar plexus and animals were killed by cervical dislocation. Blood was centrifuged to obtain plasma and aliquots of blood and plasma were counted for radioactivity in a gamma counter.
Using the medical image data examiner software AMIDE ([33]), the left ventricle of the heart (image-derived arterial blood curve), brain, liver, left kidney and urinary bladder were manually outlined as regions of interest on the PET images, guided by representative magnetic resonance images obtained for a few animals on a 1-T benchtop MR scanner (ICON; Bruker BioSpin GmbH), to derive concentration-time curves expressed in units of percent injected dose per mL (%ID/mL).
The area under the concentration-time curves (AUC, %ID/mL x min) was calculated for each region of interest using Prism 8 Software (GraphPad, La Jolla, CA, USA). […] VE is the y-intercept of the integration plot. CLint,urine was obtained by performing linear regression analysis of a plot of Xint,urine versus AUC0-t,kidney and calculating the slope of the regression line.
The plasma concentration was obtained by multiplying the concentration in the left ventricle of the heart by the plasma/blood radioactivity ratio, determined from the blood sample collected at the end of the PET scan.

The conditions of data set [7]: mean ± SD. How it is done: Blood was centrifuged to obtain plasma, the liver and the kidneys were removed and urine was collected. Proteins were precipitated by the addition of acetonitrile (1 μL/μL plasma; 1000 μL for the liver, 200 μL for the kidneys and 0.5 μL/μL urine). All solutions were vortexed and centrifuged. […] Detection was performed by placing the TLC plates on multisensitive phosphor screens (PerkinElmer Life Sciences, Waltham, MA). The screens were scanned at 300 dpi resolution using a PerkinElmer Cyclone® Plus Phosphor Imager (Perkin-Elmer Life Sciences).
as §1

In a further data set the target is mouse MATEs. The note with it: read-out: inhibition constant Ki; cited from earlier work.
The target of another data set is mouse OCTs. The conditions noted are these: read-out: inhibition constant Ki; cited from earlier work.
Setting [8] is: integration plot 0.4 to 4 min, range over baseline and treatment groups, C57BL/6 mice.
Where [9] appears, read: C57BL/6 female mice, baseline, 15 min after radiotracer injection.
Where [10] appears, read: C57BL/6 female mice, cimetidine (150 mg/kg), 15 min.
The mark [11] stands for this setting: FVB male/female Slc22a1/2^(−/−) mice, 15 min.
[12] abbreviates: FVB male/female wild-type mice, 15 min.

Read-outs that look alike come from different tables or passages of the source.

In general, pKa refers to the negative logarithm of the acid dissociation constant. With `CCN(CC)CCNC(=O)c1cc(Cl)c(N)cc1OC` [metoclopramide], the “Share of cellular uptake related to OCT1 activity” value with human OCT1 (human OCT1 transfected cell line) is 45%. In the data set with human OCT1 (in vitro), the “Substrate of human OCT1” value is “substrate”. Moreover, the “Fraction of dose excreted unchanged in urine” value in [1] was “Approximately 20%”. Besides, in data set [2], the “Substrate of human P-gp” value is “weak substrate”. The CYP2D6 inhibition entry in the data set with CYP2D6 [3] is reported as “potent inhibitor”. Further, the “Share of total clearance accounted for by CYP2D6 metabolism” value in the data set with CYP2D6 [4] is reported as 44%. Moreover, the pKa in data set [5] was 9.71. In addition, in data set [5] (physiological pH), the “Fraction in protonated form” value is recorded as “more than 99%”.
In the case of `CCN(CC)CCNC(=O)c1cc(Cl)c(N)cc1O[11CH3]` [[^11C]metoclopramide], the “Maximum amount of radioactivity in the kidneys” value in data set [6] (C57BL/6 wild-type mice, assuming average mouse organ volumes from literature) is on record as “approximately 17 % of the injected dose”. Besides, the “Time to maximum concentration of radioactivity in the kidneys and liver” value in [6] (C57BL/6 wild-type mice, i.v. microdose) is listed as at most 5 min. Besides, the “Amount of radioactivity excreted into the urinary bladder” value in data set [6] (end of the 90-min PET scan) was “approximately 45 % of the injected dose”. Further, the “kuptake,kidney (rate constant for uptake of total radioactivity from blood into the kidneys)” value in [6] (setting [8]) is given as 0.5–1 mL/min/mL kidney. The “kuptake,liver (rate constant for uptake of total radioactivity from blood into the liver)” value in [6] (setting [8]) is recorded as 0.2–0.6 mL/min/mL liver. The “Decrease of urinary excretion” value in data set [6] (the different investigated treatments vs baseline, wild-type mice) is given as “up to 3.8 fold”. Besides, the “Percentage of unchanged [^11C]metoclopramide in kidney” value was 64 ± 6% in [7] (setting [9]); 96 ± 2 % in [7] (setting [10]); 74 ± 4% in [7] (C57BL/6 female mice, co-administration of unlabeled metoclopramide (5 mg/kg), 15 min); 72 ± 8% in data set [7] (setting [11]); 70 ± 20% in data set [7] (setting [12]). Also, the “Percentage of unchanged [^11C]metoclopramide in urine” value in data set [7] (setting [9]) amounted to 29 ± 4%; in data set [7] (setting [10]), 87 ± 4 %; in data set [7] (C57BL/6 female mice, sulpiride (25 mg/kg), 15 min) it was 36 ± 5%; in data set [7] (setting [11]) it was 48 ± 10%; in data set [7] (setting [12]), 64 ± 22%.
By Ki is commonly meant a dissociation constant, usually derived from enzyme kinetics or from competition with a known ligand. For the molecule `CN/C(=N/CCSCc1nc[nH]c1C)NC#N` [cimetidine], the Ki on mouse MATEs is 1 to 4 µM; at mouse OCTs, 54 to 143 µM. The CYP2D6 inhibition entry with CYP2D6 [3] was “potent”.
